The source of these data is ChEMBL document CHEMBL1153463 (Bioorg Med Chem Lett, 2009).

Some results are limits rather than exact numbers.

Series [1] can be described thus: Metabolic stability in human liver mocrosomes. As to conditions: liver microsomes. A general note: Liver microsomes are a subcellular fraction often used to study metabolism.
Series [2] deals with Respiratory syncytial virus. As to the kind of experiment: Antiviral activity against RSV assessed as inhibition of viral replication by cell based assay. It counts as functional, organism-based. The note with it: human respiratory syncytial virus.
A short description of series [3]: Permeability across human Caco-2 cells.
Series [4] deals with Respiratory syncytial virus. The series is described as follows: Antiviral activity against RSV infected in BALB/c mouse assessed as log reduction in viral titer. It counts as functional.
A short description of series [5]: in vivo. As to conditions: rat, iv, 1 mg/kg.
Series [6] is described as follows: Volume of distribution at steady state in rat at 1 mg/kg, iv. As to conditions: in vivo.
Series [7] can be described thus: in vivo. As to conditions: rat, po, 5 mg/kg.
For series [8], the system named is Respiratory syncytial virus. The series is described as follows: Antiviral activity against RSV infected in BALB/c mouse assessed as reduction viral replication by RT-PCR. The class given is functional.
Series [9] in a line: in vivo. The note with it: rat, po, 5 mg/kg. This is another data set of the same source.
Series [10] can be described thus: in vivo. As to conditions: rat, iv, 1 mg/kg. The source holds these as a separate data set.

Regarding `CS(=O)(=O)CCCn1c(CN2C(=O)/C(=N/OCCF)c3ccncc32)nc2ccccc21`, in series [1], the half-life (as a rule, the time needed for the level to fall by half in the phase considered) was greater than 100 min. Also, in [2], the EC50 (as a rule, the concentration needed to bring the measured effect to its halfway point) was found to be 12.5 nM. The Papp (in general, a coefficient for how fast a substance crosses the barrier) in series [3] turned out to be 1 ×10⁻⁶ cm/s.

For `CS(=O)(=O)CCCn1c(CN2C(=O)/C(=N/OCc3ccccn3)c3ccncc32)nc2ccccc21`, the half-life in series [1] is 21 min. The EC50 in [2] was determined as 29 nM. For the same compound, the Papp in series [3] stood at 1.6 ×10⁻⁶ cm/s.

For `CS(=O)(=O)c1ccc(CO/N=C2/C(=O)N(Cc3nc4ccccc4n3CCCCO)c3ncccc32)cc1`, the half-life in series [1] worked out at 5.3 min. The EC50 in [2] came out at 7.3 nM. In series [3], this compound showed a Papp of 7.1 ×10⁻⁶ cm/s.

Consider `O=C1/C(=N/OCCF)c2ccncc2N1Cc1nc2ccccc2n1CCCCO`, for which the half-life in [1] is 100 min. In addition, in [2], the EC50 was 54.2 nM. In addition, the Papp in series [3] was 5.3 ×10⁻⁶ cm/s. Besides, the deltaTCID50 in series [4] was determined as 0.68.

Compound `CS(=O)(=O)c1ccc(CO/N=C2/C(=O)N(Cc3nc4ccccc4n3CCCCO)c3ccccc32)cc1` yielded a half-life in series [1] of 13 min. For the same compound, the concentration giving a half-maximal response (EC50) in [2] was 12 nM. The Papp in series [3] amounted to 15.2 ×10⁻⁶ cm/s.

For `COCCCn1c(CN2C(=O)/C(=N/OCC(N)=O)c3ccccc32)nc2ccccc21`, the half-life in series [1] was 21 min. For the same compound, in [2], the concentration for a half-maximal effect (EC50) turned out to be 154 nM. In series [3], the Papp stood at 1.5 ×10⁻⁶ cm/s.

In turn, `COCCCn1c(CN2C(=O)/C(=N/OCc3ccncc3)c3ccccc32)nc2ccccc21` came in with a half-life in [1] of 0.6 min. In series [2], the EC50 turned out to be 242 nM. In addition, the Papp in [3] is 21.4 ×10⁻⁶ cm/s.

`CO/N=C1/C(=O)N(Cc2nc3ccccc3n2CCCCF)c2cnccc21` gave a half-life in series [1] of 26 min. Moreover, the EC50 in [2] worked out at 106 nM. This compound gave a Papp in series [3] of 12.8 ×10⁻⁶ cm/s.

As for `CC(=O)OCCCCn1c(CN2C(=O)/C(=N/O)c3cccnc32)nc2ccccc21`, in series [1], the half-life is 1.3 min. In addition, the EC50 in [2] is 49.7 nM. For the same compound, the Papp in [3] came to 1.2 ×10⁻⁶ cm/s.

For the compound `CO/N=C1/C(=O)N(Cc2nc3ccccc3n2CCCCO)c2cnccc21`, the half-life in series [1] came out at 84 min. The EC50 in series [2] stood at 30.9 nM. In series [3], this compound displayed a Papp of 9.8 ×10⁻⁶ cm/s.

In series [1], `COCCCn1c(CN2C(=O)/C(=N/OCC(F)(F)F)c3ccccc32)nc2ccccc21` returned a half-life of 3.2 min. The EC50 in series [2] came to 2740 nM. Further, the Papp in series [3] was 65.2 ×10⁻⁶ cm/s.

Turning to `O=C1/C(=N/OCCF)c2ccncc2N1Cc1nc2ccccc2n1CCCCF`, the half-life in series [1] amounted to 38 min. In addition, in series [2], the EC50 came out at 61.9 nM. Moreover, the Papp in series [3] stood at 15.8 ×10⁻⁶ cm/s.

In [1], `N#CCCCn1c(CN2C(=O)/C(=N/OCC(F)(F)F)c3cccnc32)nc2ccccc21` displayed a half-life of 48 min. Further, the EC50 in [2] was found to be 112 nM. In [3], this compound registered a Papp of 18 ×10⁻⁶ cm/s.

As for `O=C1/C(=N/O)c2ccncc2N1Cc1nc2ccccc2n1CCCCF`, the half-life in series [1] stood at 100 min. Besides, in series [2], the EC50 turned out to be 17.9 nM. The compound further gave a Papp in series [3] of 2.7 ×10⁻⁶ cm/s.

Compound `CO/N=C1/C(=O)N(Cc2nc3ccccc3n2CCCC#N)c2ncccc21` yielded a half-life in [1] of 28 min. The EC50 in series [2] worked out at 92.8 nM. Besides, in series [3], the Papp is 16 ×10⁻⁶ cm/s.

For `O=C1/C(=N/OCCF)c2cccnc2N1Cc1nc2ccccc2n1CCCCO`, the half-life in [1] is 44 min. Besides, in [2], the EC50 turned out to be 43.1 nM. Besides, the Papp in series [3] is 11.5 ×10⁻⁶ cm/s. The deltaTCID50 in series [4] is 0.62.

On to `O=C1/C(=N/OCC(F)(F)F)c2cccnc2N1Cc1nc2ccccc2n1CCCCO`, for which the half-life in series [1] was found to be 65 min. The EC50 in series [2] amounted to 79.8 nM. In series [3], this compound yielded a Papp of 15.4 ×10⁻⁶ cm/s.

Compound `N#CCCCn1c(CN2C(=O)/C(=N/O)c3cccnc32)nc2ccccc21` returned a half-life in series [1] of 100 min. Also, the EC50 in [2] amounted to 22.7 nM. The compound also showed a Papp in [3] of 4.2 ×10⁻⁶ cm/s.

In series [1], `N#CCCCn1c(CN2C(=O)/C(=N/OCCF)c3cccnc32)nc2ccccc21` registered a half-life of 55 min. For the same compound, the EC50 in series [2] came to 57.3 nM. In addition, the Papp in series [3] came to 15.5 ×10⁻⁶ cm/s.

In series [1], `CO/N=C1/C(=O)N(Cc2nc3ccccc3n2CCCCO)c2ncccc21` yielded a half-life of 31 min. The EC50 in series [2] is 31.2 nM. The Papp in series [3] was determined as 14.1 ×10⁻⁶ cm/s.

Regarding `CS(=O)(=O)CCCn1c(CN2C(=O)/C(=N/OCCF)c3cccnc32)nc2ccccc21`, the half-life in [5] is 12 min; in [1] it was greater than 100 min. In series [6], the Vd (as a rule, the apparent volume that relates the amount in the body to the concentration in plasma or blood) came out at 1.8 L/kg. The Cmax (usually the highest concentration seen after dosing) in series [7] was determined as 14 ng/mL. In addition, in series [2], the EC50 stood at 29.2 nM. Also, the Papp in [3] was 18.2 ×10⁻⁶ cm/s. Besides, the Ratio in series [8] is given as 45. Further, in series [9], the bioavailability (as a rule, dose-corrected exposure relative to a reference, in per cent) was determined as 14%. Further, the deltaTCID50 in [4] was determined as 1.05. Further, the clearance (in general, the volume of plasma or blood freed of the substance per unit of time) in series [10] came out at 130 mL/min/kg.
